Data as given in patent publication US12534497B2, “TEIPP peptide variant and use as a medicament” (Academisch Ziekenhuis Leiden (h.o.d.n. LUMC), priority 2019, dated 2026).
No end group written: not given here.

Experiments:
[1] = test system: LRPAP1-specific T cell clone
[2] = target: HLA-A*0201 (Homo sapiens, UniProt P04439, D140Y/D185E/D98H/E176V/E277Q/G131W/G231S/I119V/I121R/I166T/I218V/L300P/L318F/N151K/N90K/P208A/P217A/Q86G/Q94H/R138H/R169H/T345S); conditions: previous studies; cited from earlier work
[3] = test system: monocyte-derived dendritic cells; assay: Cross-presentation of long peptides by monocyte-derived dendritic cells, read out by LRPAP1-specific CD8 T cell clone cytokine release; assay type: cell-based, human; conditions: positive control on moDC
Experimental: (A) Monocyte-derived dendritic cells were incubated with indicated long peptides comprising the LRPAP1 epitope and co-cultured with a TEIPP-specific CD8 T cell clone 1A8. Non-natural flanking amino acids at the amino-terminus, or natural flanking amino acids at the carboxy-terminus or natural flanking amino acids at both ends were used to elongate the minimal epitope. GM-CSF secretion by the TEIPP-specific T cell clone was used to determine cross-presentation efficiency and pulsing with short peptide ([…]) was used as positive control. (B) Predicted HLA-A2*01 binding affinity scores of LRPAP1 peptides with substituted amino acids at the C-terminal p9 (MHCnet 4.0 algorithm). Binding affinity score was calculated on basis of the IC50 values and ranking percentage (see Table 2 for exact values). (C) Predicted proteasome cleavage activity for four different LRPAP1 peptides using NetCHop 3.1 algorithm. […] (D) Functional T cell avidity was measured as GM-CSF secretion by TEIPP-specific T cell clone stimulated with short peptide—pulsed EBV-JY cells in serial dilutions of the peptides. […] (E) EC50 values were calculated from values obtained in D (wherein EC values represent the dose of peptide resulting in half of the maximal response to that particular peptide variant). […] Cross-presentation of the indicated long peptides was determined by T cell clone. […]

[4] = test system: TAP KO melanoma cells; assay: Recognition of TAP-deficient versus wild-type melanoma cells by peptide-induced T cell cultures; assay type: cell-based, human
Source text: (A) Schematic overview of the tetramer pull-down approach and subsequent stimulation with short peptides. (B) Specificity of polyclonal […] peptide isolated T cells (upper panel) or […] peptide isolated T cells (bottom panel) as measured by staining of the T cells with two fluorescently labeled tetramers comprising the short natural sequence (horizontal axis) or the V-substituted peptide (vertical axis) by flow cytometry. (C) Geomeans for double tetramer positive cells on […] or […] peptide isolated T cells. (D) IFNy and GM-CSF production of polyclonal T cell bulks when stimulated with peptide pulsed EBV-JY cells as measured by ELISA. Means and SD are plotted of one out of three independent experiments. (E) Reactivity of these polyclonal T cell bulks when stimulated with wild-type and TAP knock out 518A2 melanoma cells (rendered TAP-deficient by CRISPR/CAS9 technology) or no tumor cells (control) as measured by indicated cytokine production using ELISA.
18-mer (also referred to as 18-meer) is SEQ ID NO: 4; 21-mer (also referred to as 21-meer) SEQ ID NO: 5; 24-mer (also referred to as 24-meer) is SEQ ID NO:6; and 27-mer (also referred to as 27-meer) is SEQ ID NO: 7. […]
To test the functionality of these T cell bulks, cytokine responses were measured towards both short peptides pulsed on immortalized HLA-A*0201 positive B cells (FIG. 2d). […]

[5] = test system: TCR-transduced CD8 T cells; assay: Reactivity of TCR-transduced T cells to peptide pulsed EBV-JY cells (cytokine ELISA); assay type: cell-based, human; conditions: V-variant compared with S-variant peptide
Source text: (B) TCRαβ gene transduction into T cells from a healthy donor. The introduced genes contain the murine TCR-αβ domain which enhances correct pairing of transgenic alpha and beta chains. Expression of this domain is confirmed in TCR-transduced T cells (on the horizontal axis). (C) Staining of TCRαβ transduced CD8 T cells with fluorescently labeled tetramers comprising the short natural peptide sequence (left panel) or the V-substituted peptide (right panel). (D) Functional reactivity of tetramer-enriched TCR-transduced T cells to peptide pulsed EBV-JY cells as measured by indicated cytokine production using ELISA. Means and SD are depicted from one out of three experiments with similar outcome. […] TCR-transduced T cells were stimulated with either the wild type version of two different melanoma cell lines, or their TAP knock out (TAP KO) variants generated by CRISPR/CAS9 technology. […] T cells only served as control.
Platinum-Amphotropic retrovirus production (Plat-A) retroviral packing cells (Cell Biolabs) were used for retrovirus production. Plat-A cells were seeded in 6-well plates and incubated overnight until fully attached. Next, the cells were transfected with 2 μg pMP71_1A8 TCR vector using lipofectamine 2000. Retrovirus supernatant was collected on 24 h and 48 h after transfection, spun down to remove cells, and stored in −80° C. […]

[6] = test system: LRPAP1-specific T cells; assay: In vitro vaccination: SLP-loaded moDC co-cultured with tetramer-enriched autologous T cells, tetramer analysis; assay type: cell-based, human; conditions: 2 healthy blood donors stimulated 2-3 times with length variants
Experimental: In short, CD14 monocytes isolated from PBMC of healthy donors were differentiated into dendritic cells by culturing with GM-CSF and IL-4 for 6 days. On day 7, moDCs were plated in 96-well and incubated with 20 uM of V-SLP for 20 h. During the last 18 hours the DCs were matured with […] LPS. On day 8, the moDCs were washed and co-cultured with PBMC enriched for LRPAP1-specific T cells by […]-tetramers. (A) Schematic overview of the in vitro vaccination protocol using two V-variant peptides (C-terminal and N-terminal extended) as synthetic long peptides that require cross-presentation by monocyte-derived dendritic cells for priming of CD8 T cells. […] Control co-cultures were incubated without a peptide. (C) LRPAP1-specific T cell clones were generated via single cell FACS sort and their specificity to the wild type (S-variant) and the V-variant peptide was assessed using two fluorescently labeled tetramers comprising the short wild type sequence (horizontal axis) or the V-substituted peptide (vertical axis) by flow cytometry. Clone 1A8 was generated and described in a previous study^7, and used here as a reference clone. (D) LRPAP1-specific T cells clones were examined for recognition of TAP-deficient melanoma cell lines and their wild-type counterparts. Clones 2H11, 2B9 and 1A10 are shown. Means and SD are shown from one out of two experiments with similar outcome. Clone 1A8, shown in (E), served as positive control. (E) LRPAP1-specific T cells clones were examined for recognition of TAP-deficient melanoma cell lines and their wild-type counterparts. Clones 4B11, 1C5, and 1A8 are shown. Means and SD are shown from one out of two experiments with similar outcome. Clone 1A8, served as positive control. […]
HLA-A*02:01 positive PBMCs were isolated from buffy-coats from consented donors (Sanquin bloodbank, Amsterdam), using a gradient ficoll layer. […] T cell specificity and reactivity were analyzed by flow cytometry.
Tetramer staining on CD8 T cells was performed by 15 min incubation at 4° C. and washed three times with cold PBS/BSA prior to cell surface staining. […] T cell activation was measured by intracellular IFNγ staining (XMF1.2, Biolegend) using an ICS kit (BioLegend) according to manufactures protocol. moDCs were stained with anti-CD1a (clone HI149, BD), anti-CD14 (clone M5E2, BD), anti-CD80 (clone L307.4, BD), anti-CD83 (clone HB15e, BD), anti-CD86 (clone IT2.2, biolegend), and anti HLA-DR (clone G46-6, BD) antibodies for 30 min at 4° C. and washed three times with cold PBS/BSA. Samples were acquired using a BD LSRFortessa™ flow cytometry system and analyzed using FlowJo software (Tree Star). […]

Row | EC50 [1] | Sequence | expansion of HLA-A*02:01 FLGPWPAAS-specific CD8+ T cells [6] | also measured
1 | 0.7 µg/mL | FLGPWPAAI | – | –
2 | 3.7 µg/mL | FLGPWPAAL [FLGPWPAAL] | – | –
3 | 1.9 µg/mL | FLGPWPAAS | – | binding affinity onto HLA-A*0201 [2]: moderate; T cell stimulation by exogenous pulsing of short peptide [3]: did stimulate the T cells
4 | 0.1 µg/mL | FLGPWPAAV | – | recognition of TAP-negative versus wild type melanoma by peptide induced polyclonal T cell cultures ([4]; 518A2 melanoma cell line): preferred recognition of the TAP-negative tumor line; fold better T cell activation ([1]; V versus S at the C-terminus): 19 fold; cytokine response compared to the S-peptide ([1]; short peptide variants exogenously pulsed, titrated concentrations): more potent; cytokine responses of TCR-transduced T cells [5]: stronger cytokine responses
5 | – | LPALLLLLLFLGPWPAAV [18-mer] | able to stimulate the expansion | –
6 | – | LRGLPALLLLLLFLGPWPAAV [21-mer] | able to stimulate the expansion | –
7 | – | RRVRSFLRGLPALLLLLLFLGPWPAAV [27-mer] | able to stimulate the expansion | –
8 | – | RSFLRGLPALLLLLLFLGPWPAAV [24-mer] | able to stimulate the expansion | recognition of TAP KO versus TAP proficient melanoma cell lines by long peptide stimulated T cell cultures ([4]; co-cultures with TAP proficient and TAP KO melanoma cell lines): preferentially recognize the TAP KO melanoma cells
